Drawing on patent US20210395239A1 (Hoffmann-La Roche Inc., priority 2018, published 2021), this text covers IC50 for 22 compounds.

In this assay the target is T1, hTLR9 (Homo sapiens, UniProt Q9NR96).
T1 sequence (Q9NR96 26-1032): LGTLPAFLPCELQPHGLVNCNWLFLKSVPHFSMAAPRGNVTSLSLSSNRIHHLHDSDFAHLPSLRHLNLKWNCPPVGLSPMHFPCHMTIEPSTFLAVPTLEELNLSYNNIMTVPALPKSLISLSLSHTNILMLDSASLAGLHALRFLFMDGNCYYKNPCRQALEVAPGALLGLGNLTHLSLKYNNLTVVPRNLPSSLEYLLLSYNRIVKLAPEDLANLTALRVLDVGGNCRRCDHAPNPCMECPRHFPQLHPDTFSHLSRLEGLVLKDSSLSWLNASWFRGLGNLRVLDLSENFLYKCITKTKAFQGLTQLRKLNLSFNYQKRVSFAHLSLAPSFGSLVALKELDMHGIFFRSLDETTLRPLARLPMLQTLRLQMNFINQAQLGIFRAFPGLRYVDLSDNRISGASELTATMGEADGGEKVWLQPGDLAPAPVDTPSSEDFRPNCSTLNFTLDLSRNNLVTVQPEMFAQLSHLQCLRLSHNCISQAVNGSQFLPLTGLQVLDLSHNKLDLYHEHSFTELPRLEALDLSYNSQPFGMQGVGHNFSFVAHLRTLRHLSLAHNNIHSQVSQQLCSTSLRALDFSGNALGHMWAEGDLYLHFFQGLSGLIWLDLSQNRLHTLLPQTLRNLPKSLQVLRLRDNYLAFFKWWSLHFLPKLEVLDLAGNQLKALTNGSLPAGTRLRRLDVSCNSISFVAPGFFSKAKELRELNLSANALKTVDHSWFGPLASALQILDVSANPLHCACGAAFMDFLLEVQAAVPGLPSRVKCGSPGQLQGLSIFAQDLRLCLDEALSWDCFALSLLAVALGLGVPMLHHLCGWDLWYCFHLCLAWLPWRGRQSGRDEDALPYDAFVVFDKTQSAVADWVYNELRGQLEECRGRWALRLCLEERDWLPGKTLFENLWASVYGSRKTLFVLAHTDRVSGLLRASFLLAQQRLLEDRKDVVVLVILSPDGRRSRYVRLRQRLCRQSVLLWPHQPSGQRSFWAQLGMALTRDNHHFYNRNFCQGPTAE
The assay is described as follows: HEK293-Blue-hTLR-9 cells assay (SEAP reporter, ODN2006 stimulation). It is filed as cell-based. Set-up: host or cells: HEK293 (HEK-Blue hTLR9). To be noted: HEK293-Blue-hTLR9 cells, ODN2006, 20 hrs; read-out: HEK/hTLR9 IC50. Summed up: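 Antagonism read as lowered SEAP reporter absorbance (620–655 nm, QUANTI-Blue, 2 h, 37 °C) in supernatants. Before that, ODN2006-stimulated HEK293-Blue cells stably expressing human TLR9 were exposed to compound dilutions at 1% final DMSO for 20 h at 37 °C.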
As to `C[C@@H]1CN(c2ccc(C#N)c3ncccc23)C[C@H](CN2CCN(c3ccnc(N4CCN(C(=O)C5CCN5)CC4)n3)CC2)O1` (stereo partly drawn) [Example 34, 5-[(2S,6R)-2-[[4-[2-[4-(azetidine-2-carbonyl)piperazin-1-yl]pyrimidin-4-yl]piperazin-1-yl]methyl]-6-methyl-morpholin-4-yl]quinoline-8-carbonitrile], the IC50 worked out at 71 nM.

Consider `Cc1cc(N2CCN(C[C@H]3CN(c4ccc(C(F)(F)F)c5nccnc45)C[C@@H](C)O3)CC2)nc(N2CCNCC2)n1` [Example 65, (2R,6S)-2-methyl-6-[[4-(6-methyl-2-piperazin-1-yl-pyrimidin-4-yl)piperazin-1-yl]methyl]-4-[8-(trifluoromethyl)quinoxalin-5-yl]morpholine], for which the IC50 came out at 129 nM.

On to `Cc1cc(N2CCN(C[C@H]3CN(c4ccc(C#N)c5nccnc45)C[C@@H](C)O3)CC2)nc(N2CCNCC2)n1` [Example 64, 8-[(2R,6S)-2-methyl-6-[[4-(6-methyl-2-piperazin-1-yl-pyrimidin-4-yl)piperazin-1-yl]methyl]morpholin-4-yl]quinoxaline-5-carbonitrile], for which the IC50 was 35 nM.

Consider `C[C@@H]1CN(c2ccc(C#N)n3ncc(F)c23)C[C@H](CN2CCN(c3ccc(C[C@@H]4CNCCO4)cc3)CC2)O1` [Example 186, 3-fluoro-4-[(2R,6S)-2-methyl-6-[[4-[4-[[(2R)-morpholin-2-yl]methyl]phenyl]piperazin-1-yl]methyl]morpholin-4-yl]pyrazolo[1,5-a]pyridine-7-carbonitrile], for which the IC50 was 124 nM.

`Cc1cc(N2CCNCC2)nc(N2CCN(C[C@H]3CN(c4ccc(C#N)c5ncccc45)C[C@@H](C)O3)CC2)n1` [Example 68, 5-[(2R,6S)-2-methyl-6-[[4-(4-methyl-6-piperazin-1-yl-pyrimidin-2-yl)piperazin-1-yl]methyl]morpholin-4-yl]quinoline-8-carbonitrile]: the IC50 worked out at 95 nM.

On to `C[C@@H]1CN(c2ccc(C#N)c3ncccc23)C[C@H](CN2CCN(c3cccc(N4CCC(N)CC4)n3)CC2)O1` [Example 36, 5-[(2S,6R)-2-[[4-[6-(4-amino-1-piperidyl)-2-pyridyl]piperazin-1-yl]methyl]-6-methyl-morpholin-4-yl]quinoline-8-carbonitrile], for which the IC50 stood at 118 nM.

For `C[C@@H]1CN(c2ccc(C#N)c3ncccc23)C[C@H](CN2CCN(c3cc(N4CCNCC4)ncn3)CC2)O1` [Example 18, 5-[(2R,6S)-2-methyl-6-[[4-(6-piperazin-1-ylpyrimidin-4-yl)piperazin-1-yl]methyl]morpholin-4-yl]quinoline-8-carbonitrile], the IC50 came out at 52 nM.

For `Cc1cc(N2CCN(C[C@H]3CN(c4ccc(C#N)c5ncccc45)C[C@@H](C)O3)CC2)nc(NC2CNCC2C#N)n1` (stereo partly drawn) [Example 57, 5-[(2S,6R)-2-[[4-[2-[(4-cyanopyrrolidin-3-yl)amino]-6-methyl-pyrimidin-4-yl]piperazin-1-yl]methyl]-6-methyl-morpholin-4-yl]quinoline-8-carbonitrile], the IC50 was 38 nM.

On to `C[C@@H]1CN(c2ccc(C#N)c3ncccc23)C[C@H](CN2CCN(c3ccc([C@H]4CNCCO4)cc3)CC2)O1` [Example 20, 5-[(2R,6S)-2-methyl-6-[[4-[4-[(2S)-morpholin-2-yl]phenyl]piperazin-1-yl]methyl]morpholin-4-yl]quinoline-8-carbonitrile], for which the IC50 was 96 nM.

`CO[C@H]1CN(c2nc(C)cc(N3CCN(C[C@H]4CN(c5ccc(C#N)c6ncccc56)C[C@@H](C)O4)CC3)n2)C[C@H]1N` [Example 60, 5-[(2R,6S)-2-methyl-6-[[4-[6-methyl-2-[cis-3-amino-4-methoxy-pyrrolidin-1-yl]pyrimidin-4-yl]piperazin-1-yl]methyl]morpholin-4-yl]quinoline-8-carbonitrile]: the IC50 stood at 32 nM.

In the case of `C[C@@H]1CN(c2ccc(C#N)c3ncccc23)C[C@H](CN2CCN(c3ccnc(NC4CNC4)n3)CC2)O1` [Example 28, 5-[(2S,6R)-2-[[4-[2-(azetidin-3-ylamino)pyrimidin-4-yl]piperazin-1-yl]methyl]-6-methyl-morpholin-4-yl]quinoline-8-carbonitrile], the IC50 is 65 nM.

Regarding `COc1cnc(N2CCNCC2)nc1N1CCN(C[C@H]2CN(c3ccc(C#N)c4ncccc34)C[C@@H](C)O2)CC1` [Example 48, 5-[(2S,6R)-2-[[4-(5-methoxy-2-piperazin-1-yl-pyrimidin-4-yl)piperazin-1-yl]methyl]-6-methyl-morpholin-4-yl]quinoline-8-carbonitrile], the IC50 came out at 121 nM.

In the case of `C[C@@H]1CN(c2cc(=O)n(C)c3ncccc23)C[C@H](CN2CC(c3ccc(N4C[C@H]5NCCO[C@@H]5C4)cc3)C2)O1` [Example 182, 4-[(2S,6R)-2-[[3-[4-[(4aR,7aR)-3,4,4a,5,7,7a-hexahydro-2H-pyrrolo[3,4-b][1,4]oxazin-6-yl]phenyl]azetidin-1-yl]methyl]-6-methyl-morpholin-4-yl]-1-methyl-1,8-naphthyridin-2-one], the IC50 was found to be 39 nM.

Turning to `C[C@@H]1CN(c2ccc(C#N)c3ncccc23)C[C@H](CN2CCN(c3cnc(N4CCNCC4)nc3)CC2)O1` [Example 12, 5-[(2R,6S)-2-methyl-6-[[4-(2-piperazin-1-ylpyrimidin-5-yl)piperazin-1-yl]methyl]morpholin-4-yl]quinoline-8-carbonitrile], the IC50 came out at 32 nM.

Take `C[C@@H]1CN(c2ccc(C#N)n3ncc(F)c23)C[C@H](CN2CCN(c3ccc(N4CC5(CCN5)C4)nc3)CC2)O1` [Example 179, 4-[(2S,6R)-2-[[4-[6-(1,6-diazaspiro[3.3]heptan-6-yl)-3-pyridyl]piperazin-1-yl]methyl]-6-methyl-morpholin-4-yl]-3-fluoro-pyrazolo[1,5-a]pyridine-7-carbonitrile]: the IC50 amounted to 157 nM.

Regarding `Cc1cc(N2CCN(C[C@H]3CN(c4ccc(C#N)c5ncccc45)C[C@@H](C)O3)CC2)nc(N2CCOCC(N)C2)n1` (stereo partly drawn) [Example 56, 5-[(2S,6R)-2-[[4-[2-(6-amino-1,4-oxazepan-4-yl)-6-methyl-pyrimidin-4-yl]piperazin-1-yl]methyl]-6-methyl-morpholin-4-yl]quinoline-8-carbonitrile], the IC50 was 34 nM.

For the compound `C[C@@H]1CN(c2ccc(C#N)c3ncccc23)C[C@H](CN2CCN(c3ncc(N4CCNCC4)cn3)CC2)O1` [Example 17, 5-[(2R,6S)-2-methyl-6-[[4-(5-piperazin-1-ylpyrimidin-2-yl)piperazin-1-yl]methyl]morpholin-4-yl]quinoline-8-carbonitrile], the IC50 is 186 nM.

With `C[C@@H]1CN(c2ccc(C#N)c3ncccc23)C[C@H](CN2CCN(c3nc(N4CCNCC4)ncc3C#N)CC2)O1` [Example 50, 5-[(2S,6R)-2-[[4-(5-cyano-2-piperazin-1-yl-pyrimidin-4-yl)piperazin-1-yl]methyl]-6-methyl-morpholin-4-yl]quinoline-8-carbonitrile], the IC50 is 126 nM.

Turning to `C[C@@H]1CN(c2ccc(C#N)c3ncccc23)C[C@H](CN2CCN(c3ccnc(N4CCC(N)CC4)n3)CC2)O1` [Example 27, 5-[(2S,6R)-2-[[4-[2-(4-amino-1-piperidyl)pyrimidin-4-yl]piperazin-1-yl]methyl]-6-methyl-morpholin-4-yl]quinoline-8-carbonitrile], the IC50 is 43 nM.

As for `Cc1cc(N2CCN(C[C@H]3CN(c4ccc(C#N)n5ncc(F)c45)C[C@@H](C)O3)CC2)nc(N2CCNCC2)n1` [Example 67, 3-Fluoro-4-[(2R,6S)-2-methyl-6-[[4-(6-methyl-2-piperazin-1-yl-pyrimidin-4-yl)piperazin-1-yl]methyl]morpholin-4-yl]pyrazolo[1,5-a]pyridine-7-carbonitrile], the IC50 stood at 81 nM.

As to `C[C@@H]1CN(c2ccc(C#N)c3ncccc23)C[C@H](CN2CCN(c3ccnc(OCCN(C)C)n3)CC2)O1` [Example 30, 5-[(2S,6R)-2-[[4-[2-[2-(dimethylamino)ethoxy]pyrimidin-4-yl]piperazin-1-yl]methyl]-6-methyl-morpholin-4-yl]quinoline-8-carbonitrile], the IC50 amounted to 250 nM.

For the compound `C[C@@H]1CN(c2ccc(C#N)c3ncccc23)C[C@H](CN2CCN(c3cccc(N[C@H]4CNC[C@H]4F)n3)CC2)O1` [Example 37, 5-[(2S,6R)-2-[[4-[6-[[(3S,4R)-4-fluoropyrrolidin-3-yl]amino]-2-pyridyl]piperazin-1-yl]methyl]-6-methyl-morpholin-4-yl]quinoline-8-carbonitrile], the IC50 worked out at 234 nM.
